In patent US11413278B2, “Compounds and methods for promoting stress resistance” (priority 2015, dated 2022):
Like-named read-outs stand apart in the source and are kept apart here.

Assays:
C. elegans = type: in vivo, Caenorhabditis elegans; settings: in vivo
Experimental: The worms were treated with the small molecules in liquid, with H2O2 (500 μM final concentration) added on day 4 of adulthood, and scored for viability everyday
FUdR was used to block progeny production. The molecules were analyzed in 96-well plates, with 4 wells for each small molecule. Multiple control wells with DMSO (0.2% final concentration) were included. […] Day 1 adults were transferred onto mini-plates, seeded with OP50 bacteria (UV-irradiated, kanamycin-treated) and supplemented with small molecules (˜60 μM final concentration, 0.2% DMSO). Worms were scored every other day. Cumulative survival was analyzed using the STATA software (log-rank test). […] The worms were treated with the small molecules in liquid, with H2O2 (500 μM final concentration) added on day 4 of adulthood, and scored for viability every day.

WI-38 cells [1] = settings: for No H2O2 stress treatment, at 10 uM (fold change): normalized ATP measurement; for Assay 1: H2O2-resistant: YES/NO, if NO, possibly due to repeated freezing/thawing of stocks
human PARP1 = biological target: T1, human PARP1 (Homo sapiens, UniProt P09874); assay: PARP inhibitor assay (HT Fluorescent Homogeneous PARP Inhibition Assay Kit); type: biochemical; settings: for L = PARP inhibition: score
T1 construct: purchased Trevigen
T1 sequence (P09874 whole entry): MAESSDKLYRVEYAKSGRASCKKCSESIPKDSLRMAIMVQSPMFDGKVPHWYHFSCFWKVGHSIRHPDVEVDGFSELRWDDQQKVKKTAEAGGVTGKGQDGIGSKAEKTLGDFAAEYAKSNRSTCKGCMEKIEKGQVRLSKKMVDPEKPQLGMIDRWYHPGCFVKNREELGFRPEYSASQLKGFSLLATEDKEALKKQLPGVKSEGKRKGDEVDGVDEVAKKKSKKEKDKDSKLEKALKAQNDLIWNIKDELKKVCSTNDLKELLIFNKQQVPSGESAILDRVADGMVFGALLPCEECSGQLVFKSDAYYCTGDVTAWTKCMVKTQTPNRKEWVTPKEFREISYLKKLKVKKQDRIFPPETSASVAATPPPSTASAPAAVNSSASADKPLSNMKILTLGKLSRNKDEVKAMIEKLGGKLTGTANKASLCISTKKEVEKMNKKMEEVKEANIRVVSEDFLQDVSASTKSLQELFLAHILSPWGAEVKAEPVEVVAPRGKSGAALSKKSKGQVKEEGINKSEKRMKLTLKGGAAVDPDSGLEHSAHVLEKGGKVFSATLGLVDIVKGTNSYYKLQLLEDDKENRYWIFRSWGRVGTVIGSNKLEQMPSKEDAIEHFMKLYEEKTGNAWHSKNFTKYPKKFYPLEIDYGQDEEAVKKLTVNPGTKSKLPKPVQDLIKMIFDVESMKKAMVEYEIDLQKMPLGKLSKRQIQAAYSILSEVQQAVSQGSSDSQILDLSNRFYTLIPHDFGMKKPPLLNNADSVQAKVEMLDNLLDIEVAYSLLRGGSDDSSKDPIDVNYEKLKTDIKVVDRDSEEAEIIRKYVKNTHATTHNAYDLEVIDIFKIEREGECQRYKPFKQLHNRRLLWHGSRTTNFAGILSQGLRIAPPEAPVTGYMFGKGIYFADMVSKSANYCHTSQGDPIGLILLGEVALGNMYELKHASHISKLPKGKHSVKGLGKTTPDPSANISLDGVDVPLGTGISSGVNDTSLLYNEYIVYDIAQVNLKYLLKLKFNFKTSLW
How it was run: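 Compounds (10 μM final) incubated 30 min, room temperature, dark, with human PARP1, nicotinamide adenine dinucleotide and activated DNA. Fluorescent signal generated by 1 hr cycling with diaphorase and resazurin, then reaction stopped.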

WI-38 cells [2] = assay: CdCl2 (cadmium) resistance assay; type: cell-based, human; settings: for fold induction at 10 µM: Homo sapiens, 12 h, normalized ATP measurement; for Assay 4: H2O2- & Cd-resistant / Assay 2: Cadmium-resistant: YES/NO; for Assay 2: Cadmium-resistant: * indicates partial
How it was run: (§1)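 Resistance to CdCl2 or MMS stress (12 h exposure) was scored in WI-38 fibroblasts pretreated with compound at 0.25–20 μM final, five doses, technical triplicates. MMS plates had compound added 24 h before MMS, after a shift to serum-free DMEM+2% BSA. Significance came from a global variance t-test over two independent runs.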

WI-38 cells [3] = assay: MMS resistance assay; type: cell-based, human; settings: for fold induction at 10 µM: Homo sapiens, 12 h, normalized ATP measurement; for Assay 3: MMS-resistant / Assay 5: Triple resistant: YES/NO; for Assay 3: MMS-resistant: * indicates partial; for Assay 5: Triple resistant: H2O2, cadmium and MMS; for Triple resistant: H2O2, CdCl2 and MMS
How it was run: as §1

[4] = test system: phosphorylated γH2A.X and TP53BP1; assay: DNA damage marker analysis (immuno-staining); settings: for activity at 10 µM: Homo sapiens, WI-38, 24 h; for P = Potential DNA-damaging / R = Potential DNA damaging: human, 24 h
How it was run: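 Immunofluorescence read-out for phospho-γH2A.X (Ser-139) and phospho-TP53BP1 (Ser-1778), with DAPI nuclear stain and automated imaging at 10×. WI-38 cells (~8,000 per well) were exposed to small molecules for 24 h after 24 h of culture, with doxorubicin (300 nM, 24 h) or H2O2 (700 μM, 3 h) as positive damage controls.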

[5] = WI-38 cells, 10 μM, (*) = compromised ability to protect cells from H2O2, could be due to stability issue
[6] = asterisks indicate the loss of the ability to protect cells from H2O2 over time
[7] = derived from dose response curves, 0.6-20 uM, H2O2-resistance of WI-38 cells
[8] = read-out: Est. ED50, dose response 0.6-20 μM, H2O2-resistance
[9] = Exp. 1, WI-38 cells, read-out: Exp. 1, under Cd2Cl2 stress treatment, at 10 uM (fold change)
[10] = Exp. 2, WI-38 cells, read-out: Exp. 2, under Cd2Cl2 stress treatment, at 10 uM (fold change)
[11] = WI-38 cells, 10 μM, both stressors
[12] = score in summary of 38 core set hits
[13] = Exp. 1, WI-38 cells, read-out: Exp. 1, under MMS stress treatment, at 10 uM (fold change)
[14] = Exp. 2, WI-38 cells, read-out: Exp. 2, under MMS stress treatment, at 10 uM (fold change)
[15] = read-out: Experiment 1, H2A.X-P DNA damage foci staining (no H2O2 stress treatment), at 10 uM
[16] = read-out: Experiment 2, H2A.X-P DNA damage foci staining (no H2O2 stress treatment), at 10 uM
[17] = read-out: Experiment 2, H2A.X-P DNA damage foci staining (under H2O2 stress treatment), at 10 uM
[18] = read-out: Experiment 2, TP53BP1-P DNA damage foci staining (no H2O2 stress treatment), at 10 uM
[19] = read-out: Experiment 2, TP53BP1-P DNA damage foci staining (under H2O2 stress treatment), at 10 uM

Row | Structure (SMILES) | L = H2O2-resistance in worms (C. elegans) | N = H2O2-resistance in woms (C. elegans) | H2O2-resistant (WI-38 cells [1]; [5]) | No H2O2 stress treatment, at 10 uM (fold change) (WI-38 cells [1]; WI-38 cells) | H2O2-resistant (WI-38 cells [1]; [6]) | EC50 (WI-38 cells [1]; [7]) [µM] | EC50 (WI-38 cells [1]; [8]) [µM] | L = PARP inhibition (human PARP1) | fold induction at 10 µM (WI-38 cells [2]; [9]) | fold induction at 10 µM (WI-38 cells [2]; [10]) | A = Cadmium resistant (WI-38 cells [2]; [12]) | A = Cadmium resistant (WI-38 cells [2]; summary score) | C = H2O2- & Cd-resistant (WI-38 cells [2]; summary score) | fold induction at 10 µM (WI-38 cells [3]; [13]) | fold induction at 10 µM (WI-38 cells [3]; [14]) | B = MMS resistant (WI-38 cells [3]; [12]) | B = MMS resistant (WI-38 cells [3]; summary score) | D = Triple resistant (WI-38 cells [3]; summary score) | activity at 10 µM [4, 15] [%] | activity at 10 µM [4, 16] [%] | also measured
1 | NS(=O)(=O)c1ccc(NC(=O)c2ccc([N+](=O)[O-])o2)cc1 [Gr-1A] | 0 | 0 | YES | 0.72 | YES | 6 | 2.53 | 0 | 1.46 | 1.45 | 1 | 1 | 1 | 0.72 | 2.42 | 0 | 1 | 2 | 196 | 223 | H2O2-resistance assay, 1st experiment (C. elegans): YES;; Assay 1: H2O2-resistant (WI-38 cells [1]): YES; CdCl2-resistant (WI-38 cells [2]): YES; H2O2- & CdCl2-resistant (WI-38 cells [2]): YES; CdCl2-resistant (WI-38 cells [2]; WI-38 cells, 10 μM): YES; H2O2- & CdCl2-resistant (WI-38 cells [2]; [11]): YES; Assay 4: H2O2- & Cd-resistant (WI-38 cells [2]): YES; Assay 2: Cadmium-resistant (WI-38 cells [2]): YES; Assay 3: MMS-resistant (WI-38 cells [3]): YES; Assay 5: Triple resistant (WI-38 cells [3]): YES; activity at 10 µM [4, 17]: 179%; activity at 10 µM [4, 18]: 411%; activity at 10 µM [4, 19]: 653%; P = Potential DNA-damaging [4]: 1; R = Potential DNA damaging [4]: 1
2 | Cc1cc(N)n(-c2ccccc2C(=O)O)n1 [Gr-6A] | 0 | 0 | YES | 1.10 | YES | 13.8 | 40.5 | 1 | 2.46 | 2.36 | 1 | 1 | 1 | 2.2 | 7.2 | 1 | 1 | 2 | 117 | 59.9 | H2O2-resistance assay, 1st experiment (C. elegans): YES;; Assay 1: H2O2-resistant (WI-38 cells [1]): YES; Inhibition of PARP1 (human PARP1; 10 μM, in vitro): inhibitors of PARP1; CdCl2-resistant (WI-38 cells [2]): YES; H2O2- & CdCl2-resistant (WI-38 cells [2]): YES; CdCl2-resistant (WI-38 cells [2]; WI-38 cells, 10 μM): YES; H2O2- & CdCl2-resistant (WI-38 cells [2]; [11]): YES; Assay 4: H2O2- & Cd-resistant (WI-38 cells [2]): YES; Assay 2: Cadmium-resistant (WI-38 cells [2]): YES; MMS-resistant (WI-38 cells [3]): YES; Multiplex resistance to cadmium, MMS and H2O2 (WI-38 cells [3]; 0.25 μM to 20 μM, repurchased molecules): reproducibly conferred multiplex resistance; Triple resistant (WI-38 cells [3]): YES; MMS-resistant (WI-38 cells [3]; WI-38 cells, 10 μM): YES; Triple resistant (WI-38 cells [3]; WI-38 cells, 10 μM): YES; Assay 3: MMS-resistant (WI-38 cells [3]): YES; Assay 5: Triple resistant (WI-38 cells [3]): YES; activity at 10 µM [4, 17]: 200%; activity at 10 µM [4, 18]: 138%; P = Potential DNA-damaging [4]: 0; R = Potential DNA damaging [4]: 0
3 | [O-][n+]1onc2c3nsnc3c(Br)cc21 [O17] | 1 | 1 | YES | 1.06 | YES | 8.5 | 8.5 | 0 | 0.95 | 1.35 | 0 | 0 | 0 | 0.86 | 5.33 | 0 | 0 | 0 | 96.7 | 72.1 | H2O2-resistance assay, 1st experiment (C. elegans): YES;; H2O2-resistance assay, 2nd experiment (C. elegans): YES.; Protection of C. elegans from hydrogen peroxide (C. elegans): could protect C. elegans from hydrogen peroxide; activity at 10 µM [4, 17]: 129%; activity at 10 µM [4, 18]: 148%; activity at 10 µM [4, 19]: 349%; P = Potential DNA-damaging [4]: 0; R = Potential DNA damaging [4]: 0
4 | Cc1ccc(NC(=O)c2ccc([N+](=O)[O-])o2)cc1C [Gr-1F] | 0 | 0 | YES | 0.60 | YES | 14.8 | 2.88 | 0 | 6.65 | 4.8 | 1 | 1 | 1 | 0.74 | 2.07 | 0 | 1 | 2 | 219 | 378 | Assay 1: H2O2-resistant (WI-38 cells [1]): YES; CdCl2-resistant (WI-38 cells [2]): YES; H2O2- & CdCl2-resistant (WI-38 cells [2]): YES; CdCl2-resistant (WI-38 cells [2]; WI-38 cells, 10 μM): YES; H2O2- & CdCl2-resistant (WI-38 cells [2]; [11]): YES; Assay 4: H2O2- & Cd-resistant (WI-38 cells [2]): YES; Assay 2: Cadmium-resistant (WI-38 cells [2]): YES; Assay 3: MMS-resistant (WI-38 cells [3]): YES; Assay 5: Triple resistant (WI-38 cells [3]): YES; activity at 10 µM [4, 17]: 127%; activity at 10 µM [4, 18]: 460%; activity at 10 µM [4, 19]: 558%; P = Potential DNA-damaging [4]: 1; R = Potential DNA damaging [4]: 1
